Test results taken from the NIST ThermoML archive (doi:10.1007/s10765-007-0169-z).

Legend:
[1] = for surface tension liquid-gas: Drop volume; for mass density: 101.33 kPa, Liquid, Pycnometric method
[2] = xn = mol fraction of the nth substance listed; details: Drop volume

CC(C)CCl [1-chloro-2-methylpropane]
[1]
Details | mass density [kg/m3] | surface tension liquid-gas [mN/m]
298.15 K | 871.13 | 21.8
313.15 K | – | 19.18

CC(C)CCl [1-chloro-2-methylpropane] + C1CCOC1
[2]
Details | surface tension liquid-gas [mN/m]
298.15 K, x2 = 0.0652 | 22.25
298.15 K, x2 = 0.1201 | 22.54
298.15 K, x2 = 0.2392 | 23.06
298.15 K, x2 = 0.3613 | 23.53
298.15 K, x2 = 0.4622 | 23.94
298.15 K, x2 = 0.5682 | 24.44
298.15 K, x2 = 0.6614 | 24.9
298.15 K, x2 = 0.7586 | 25.42
298.15 K, x2 = 0.8408 | 25.89
298.15 K, x2 = 0.9257 | 26.45
298.15 K, x2 = 0.9662 | 26.75
313.15 K, x2 = 0.0619 | 19.77
313.15 K, x2 = 0.1268 | 20.25
313.15 K, x2 = 0.2531 | 21
313.15 K, x2 = 0.359 | 21.53
313.15 K, x2 = 0.4722 | 22.06
313.15 K, x2 = 0.5669 | 22.51
313.15 K, x2 = 0.659 | 22.97
313.15 K, x2 = 0.7539 | 23.45
313.15 K, x2 = 0.8338 | 23.88
313.15 K, x2 = 0.9198 | 24.42
313.15 K, x2 = 0.9751 | 24.83

CC(C)CCl [1-chloro-2-methylpropane] + C1CCOCC1
[2]
Details | surface tension liquid-gas [mN/m]
298.15 K, x2 = 0.0483 | 22.18
298.15 K, x2 = 0.1067 | 22.55
298.15 K, x2 = 0.2075 | 23.09
298.15 K, x2 = 0.32 | 23.63
298.15 K, x2 = 0.4148 | 24.07
298.15 K, x2 = 0.519 | 24.58
298.15 K, x2 = 0.6219 | 25.11
298.15 K, x2 = 0.7194 | 25.65
298.15 K, x2 = 0.8079 | 26.15
298.15 K, x2 = 0.9077 | 26.72
298.15 K, x2 = 0.9602 | 27.04
313.15 K, x2 = 0.0377 | 19.55
313.15 K, x2 = 0.1032 | 20.11
313.15 K, x2 = 0.2167 | 20.92
313.15 K, x2 = 0.3226 | 21.57
313.15 K, x2 = 0.4213 | 22.13
313.15 K, x2 = 0.5302 | 22.74
313.15 K, x2 = 0.6241 | 23.27
313.15 K, x2 = 0.7134 | 23.78
313.15 K, x2 = 0.8148 | 24.37
313.15 K, x2 = 0.9051 | 24.89
313.15 K, x2 = 0.966 | 25.22

CCCCCl [1-chlorobutane]
[1]
Details | mass density [kg/m3] | surface tension liquid-gas [mN/m]
298.15 K | 880.69 | 23.29
313.15 K | – | 21.58

CCCCCl [1-chlorobutane] + C1CCOC1
[2]
Details | surface tension liquid-gas [mN/m]
298.15 K, x2 = 0.0526 | 23.45
298.15 K, x2 = 0.1121 | 23.62
298.15 K, x2 = 0.2436 | 23.98
298.15 K, x2 = 0.3549 | 24.29
298.15 K, x2 = 0.4671 | 24.65
298.15 K, x2 = 0.5624 | 25
298.15 K, x2 = 0.6678 | 25.41
298.15 K, x2 = 0.7575 | 25.79
298.15 K, x2 = 0.84 | 26.16
298.15 K, x2 = 0.9224 | 26.58
298.15 K, x2 = 0.9739 | 26.87
313.15 K, x2 = 0.0654 | 21.78
313.15 K, x2 = 0.1272 | 21.95
313.15 K, x2 = 0.25 | 22.28
313.15 K, x2 = 0.3654 | 22.59
313.15 K, x2 = 0.4658 | 22.89
313.15 K, x2 = 0.5586 | 23.2
313.15 K, x2 = 0.6569 | 23.56
313.15 K, x2 = 0.7489 | 23.92
313.15 K, x2 = 0.8401 | 24.3
313.15 K, x2 = 0.9272 | 24.69
313.15 K, x2 = 0.9663 | 24.88

CCCCCl [1-chlorobutane] + C1CCOCC1
[2]
Details | surface tension liquid-gas [mN/m]
298.15 K, x2 = 0.0421 | 23.43
298.15 K, x2 = 0.1082 | 23.65
298.15 K, x2 = 0.2121 | 24.02
298.15 K, x2 = 0.3174 | 24.41
298.15 K, x2 = 0.4245 | 24.82
298.15 K, x2 = 0.5222 | 25.21
298.15 K, x2 = 0.6243 | 25.63
298.15 K, x2 = 0.7209 | 26.04
298.15 K, x2 = 0.8105 | 26.43
298.15 K, x2 = 0.9103 | 26.88
298.15 K, x2 = 0.9655 | 27.13
313.15 K, x2 = 0.0319 | 21.69
313.15 K, x2 = 0.1092 | 21.95
313.15 K, x2 = 0.208 | 22.29
313.15 K, x2 = 0.3137 | 22.66
313.15 K, x2 = 0.4209 | 23.04
313.15 K, x2 = 0.5149 | 23.39
313.15 K, x2 = 0.6199 | 23.8
313.15 K, x2 = 0.717 | 24.19
313.15 K, x2 = 0.8126 | 24.59
313.15 K, x2 = 0.9067 | 24.99
313.15 K, x2 = 0.965 | 25.24

CC(C)(C)Cl [2-chloro-2-methylpropane]
[1]
Details | mass density [kg/m3] | surface tension liquid-gas [mN/m]
298.15 K | 836.45 | 18.9
313.15 K | – | 16.98

CC(C)(C)Cl [2-chloro-2-methylpropane] + C1CCOC1
[2]
Details | surface tension liquid-gas [mN/m]
298.15 K, x2 = 0.0664 | 19.32
298.15 K, x2 = 0.1332 | 19.74
298.15 K, x2 = 0.2532 | 20.51
298.15 K, x2 = 0.3652 | 21.26
298.15 K, x2 = 0.4851 | 22.11
298.15 K, x2 = 0.5768 | 22.81
298.15 K, x2 = 0.6804 | 23.66
298.15 K, x2 = 0.7747 | 24.51
298.15 K, x2 = 0.8446 | 25.2
298.15 K, x2 = 0.9372 | 26.23
298.15 K, x2 = 0.9656 | 26.58
313.15 K, x2 = 0.0427 | 16.98
313.15 K, x2 = 0.1236 | 17.22
313.15 K, x2 = 0.1853 | 17.54
313.15 K, x2 = 0.2856 | 18.22
313.15 K, x2 = 0.3852 | 18.94
313.15 K, x2 = 0.5033 | 19.9
313.15 K, x2 = 0.6055 | 20.75
313.15 K, x2 = 0.6963 | 21.55
313.15 K, x2 = 0.794 | 22.48
313.15 K, x2 = 0.89 | 23.53
313.15 K, x2 = 0.9446 | 24.25

CC(C)(C)Cl [2-chloro-2-methylpropane] + C1CCOCC1
[2]
Details | surface tension liquid-gas [mN/m]
298.15 K, x2 = 0.0332 | 19.18
298.15 K, x2 = 0.0955 | 19.68
298.15 K, x2 = 0.2242 | 20.68
298.15 K, x2 = 0.3219 | 21.37
298.15 K, x2 = 0.4336 | 22.17
298.15 K, x2 = 0.5374 | 22.97
298.15 K, x2 = 0.6269 | 23.69
298.15 K, x2 = 0.7173 | 24.48
298.15 K, x2 = 0.8149 | 25.41
298.15 K, x2 = 0.9089 | 26.36
298.15 K, x2 = 0.9418 | 26.71
313.15 K, x2 = 0.0734 | 17.35
313.15 K, x2 = 0.1038 | 17.5
313.15 K, x2 = 0.2093 | 18.14
313.15 K, x2 = 0.3169 | 18.9
313.15 K, x2 = 0.4363 | 19.8
313.15 K, x2 = 0.5116 | 20.41
313.15 K, x2 = 0.612 | 21.24
313.15 K, x2 = 0.7058 | 22.05
313.15 K, x2 = 0.8154 | 23.08
313.15 K, x2 = 0.9006 | 23.98
313.15 K, x2 = 0.9529 | 24.66

CCC(C)Cl (centres undefined) [2-chlorobutane]
[1]
Details | mass density [kg/m3] | surface tension liquid-gas [mN/m]
298.15 K | 867.37 | 21.93
313.15 K | – | 19.33

CCC(C)Cl (centres undefined) [2-chlorobutane] + C1CCOC1
[2]
Details | surface tension liquid-gas [mN/m]
298.15 K, x2 = 0.0427 | 21.96
298.15 K, x2 = 0.1259 | 22.24
298.15 K, x2 = 0.2478 | 22.71
298.15 K, x2 = 0.3589 | 23.19
298.15 K, x2 = 0.4628 | 23.68
298.15 K, x2 = 0.5654 | 24.19
298.15 K, x2 = 0.6678 | 24.74
298.15 K, x2 = 0.7513 | 25.22
298.15 K, x2 = 0.84 | 25.77
298.15 K, x2 = 0.9208 | 26.35
298.15 K, x2 = 0.9701 | 26.76
313.15 K, x2 = 0.0581 | 19.7
313.15 K, x2 = 0.124 | 20.12
313.15 K, x2 = 0.2442 | 20.84
313.15 K, x2 = 0.3595 | 21.47
313.15 K, x2 = 0.4761 | 22.05
313.15 K, x2 = 0.573 | 22.53
313.15 K, x2 = 0.6654 | 23
313.15 K, x2 = 0.7524 | 23.45
313.15 K, x2 = 0.836 | 23.94
313.15 K, x2 = 0.9209 | 24.49
313.15 K, x2 = 0.9663 | 24.81

CCC(C)Cl (centres undefined) [2-chlorobutane] + C1CCOCC1
[2]
Details | surface tension liquid-gas [mN/m]
298.15 K, x2 = 0.04 | 22.05
298.15 K, x2 = 0.1057 | 22.38
298.15 K, x2 = 0.2133 | 22.88
298.15 K, x2 = 0.3195 | 23.39
298.15 K, x2 = 0.4166 | 23.88
298.15 K, x2 = 0.5188 | 24.44
298.15 K, x2 = 0.6151 | 24.99
298.15 K, x2 = 0.7111 | 25.56
298.15 K, x2 = 0.8098 | 26.15
298.15 K, x2 = 0.9438 | 26.95
298.15 K, x2 = 0.9845 | 27.2
313.15 K, x2 = 0.0355 | 19.56
313.15 K, x2 = 0.1006 | 20.01
313.15 K, x2 = 0.2177 | 20.83
313.15 K, x2 = 0.3192 | 21.5
313.15 K, x2 = 0.4243 | 22.14
313.15 K, x2 = 0.5166 | 22.66
313.15 K, x2 = 0.5931 | 23.07
313.15 K, x2 = 0.7193 | 23.76
313.15 K, x2 = 0.8156 | 24.31
313.15 K, x2 = 0.9057 | 24.85
313.15 K, x2 = 0.991 | 25.34

C1CCOC1 [tetrahydrofuran]
[1]
Details | mass density [kg/m3] | surface tension liquid-gas [mN/m]
298.15 K | 881.95 | 27.04
313.15 K | – | 25.05

C1CCOCC1 [tetrahydropyran]
[1]
Details | mass density [kg/m3] | surface tension liquid-gas [mN/m]
298.15 K | 878.81 | 27.29
313.15 K | – | 25.39
